The values below come from PMC12531613, “Synthesis and Biological Evaluation of Novel 2‐(Piperidin‐4‐yl)‐1,2,3,4‐tetrahydroisoquinoline and 2‐(Piperidin‐4‐yl)decahydroisoquinoline Antimycotics” (Archiv Der Pharmazie, 2025).

The subject of series [1] is Candida species. Conditions: reported values; cited from earlier work.
Series [2] concerns C. albicans. As to the kind of experiment: MIC90 microdilution (EUCAST), C. albicans. It counts as cell-based. Conditions: Candida albicans, 24 h. The protocol: (§1) Determination of MICs (minimal inhibitory concentration) against Candida species was carried out according to the European Committee of Antifungal Susceptibility Testing. Concentration of yeast cells was determined by photometer and adjusted to a turbidity of 0.5 according to McFarland standard. MIC90 was determined by microdilution plate reader (Sunrise Tecan) at 450 nm, after 24 h incubation at 37°C. MIC90 was defined as the minimal concentration of chemical causing 90% growth inhibition, respectively. Growth inhibition of molds was determined by eye and microscopically, following EUCAST guidelines. All substances were dissolved in DMSO and diluted in RPMI 1640 medium, containing 2% glucose. All assays were carried out twice.
A general note: Dilution methods test growth across graded concentrations, often in twofold steps.

The test system of series [3] is Yarrowia lipolytica. As to the kind of experiment: MIC100 microdilution assay against Yarrowia lipolytica. In kind it is cell-based. The protocol: In previous research we found a good correlation between MIC values against Yarrowia lipolytica and pathogenic Candida species.
Determination of MICs against Yarrowia lipolytica (DSMZ, Braunschweig, Germany) was carried out according to lit. Yarrowia lipolytica was cultivated in AC‐agar (Sigma Aldrich). Concentration of yeast cells was determined by photometer and adjusted to a turbidity of 0.5 according to McFarland standard at 600 nm. All substances were dissolved in DMSO or methanol.
Determination of MICs (minimal inhibitory concentration) against Yarrowia lipolytica was carried out according to Lit.^[13] Concentration of yeast cells was determined by photometer and adjusted to a turbitity of 0.5 according to McFarland Standard.

Series [4] has as its system Candida isolates. Nature of the series: MIC90 against Candida isolates. In kind it is cell-based. To be noted: span over the Candida isolates tested. The protocol:
as §1

Series [5] concerns R. microsporus. As to the kind of experiment: MIC90 growth inhibition of molds (EUCAST), R. microsporus. To be noted: Rhizopus microsporus. In kind it is cell-based. The procedure: as §1
Series [6] has as its system A. fumigatus (R7). Nature of the series: MIC90 growth inhibition of molds (EUCAST), A. fumigatus (R7). It counts as cell-based. Conditions: Aspergillus fumigatus. The procedure:
as §1

For series [7], the system named is R. arrhizus (oryzae). Nature of the series: MIC90 growth inhibition of molds (EUCAST), R. arrhizus (oryzae). It counts as cell-based. Conditions: Rhizopus arrhizus. The protocol: as §1
Series [8] relates to A. fumigatus (A65). As to the kind of experiment: MIC90 growth inhibition of molds (EUCAST), A. fumigatus (A65). It counts as cell-based. Conditions: Aspergillus fumigatus, RPMI 1640, 2% glucose, read by eye and microscopically. The procedure: Determination of MICs (minimal inhibitory concentration) against Candida species was carried out according to the European Committee of Antifungal Susceptibility Testing. Concentration of yeast cells was determined by photometer and adjusted to a turbidity of 0.5 according to McFarland standard. […] Growth inhibition of molds was determined by eye and microscopically, following EUCAST guidelines. […] All assays were carried out twice.

Series [9] deals with A. fumigatus (R16). Nature of the series: MIC90 growth inhibition of molds (EUCAST), A. fumigatus (R16). To be noted: Aspergillus fumigatus. It counts as cell-based. The procedure:
as §1

Series [10] concerns C. krusei. As to the kind of experiment: MIC90 microdilution (EUCAST), C. krusei. In kind it is cell-based. To be noted: Pichia kudriavzevii, 24 h. The protocol:
as §1

The nature of series [11]: MTT cytotoxicity assay against HL 60 cells. It counts as cell-based. To be noted: human. The protocol: The cytotoxicity of the active compounds was checked in an MTT assay against human HL 60 cells. […] Although, this corresponds to the MIC range that would be needed in treatment, the values are within the range observed for commonly used antimycotics such as amorolfine and posaconazole. All active compounds were evaluated for their biopharmaceutical behavior and drug‐likeness using the online program SwissADME [26] and should show oral bioavailability according to the Lipinski rules of five.
HL‐60 cells (human leukemia cells, DSM No. ACC3) were obtained from DSMZ (German Collection of Microorganisms and Cell Cultures, Braunschweig, Germany) and cultivated in RPMI 1640 medium with 10% fetal bovine serum (FBS), both from PAA Laboratories, Cölbe, Germany) without the addition of antibiotics at 37°C in a humidified atmosphere containing 5% CO2. The assay was performed according to lit.
A general note: Tetrazolium dyes change colour on reduction, which living cells bring about.

Series [12] concerns C. glabrata. As to the kind of experiment: MIC90 microdilution (EUCAST), C. glabrata. It counts as cell-based. Conditions: Nakaseomyces glabratus, 24 h. The protocol:
as §1

The test system of series [13] is molds. Nature of the series: Growth inhibition of molds. In kind it is cell-based. To be noted: against the molds. The protocol: as §1
[14] abbreviates: 48 h, read-out: Biological Activity MIC Yarrowia lipolytica.
[15] abbreviates: read-out: MIC100 (molar value in brackets).
The mark [16] stands for this setting: HL-60 cells (human leukemia cells), HL 60 cell line, MTT assay, read-out: IC50 cytotoxicity.

Converted amounts (≈) assume the structure as drawn. Read-outs that look alike come from different tables or passages of the source.

`CC(Cc1ccc(C(C)(C)C)cc1)CN1C[C@@H](C)O[C@@H](C)C1` (stereo partly drawn) [fenpropimorph]: the “MIC values against Candida species” value in series [1] is 0.5 to 2 µg/mL.
Regarding `CCCCCCCCCCCCN1CCC(N2CCc3cc(OC)c(OC)cc3C2)CC1` [6f, 2‐(1‐Dodecylpiperidin‐4‐yl)‐6,7‐dimethoxy‐1,2,3,4‐tetrahydroisoquinoline], the MIC90 is 4 µg/mL (≈ 8.99 µM) in series [2]; 2 to 16 µg/mL (≈ 4.5 to 36 µM) in series [4]; over 32 µg/mL in [5]; over 32 µg/mL in series [6]; over 32 µg/mL in [7]; over 32 µg/mL in [8]. Further, the MIC90 was over 32 µg/mL in [9] and 2 µg/mL (≈ 4.5 µM) in [10]. The MIC worked out at 3.1 µg/mL in series [3] (setting [14]); 3.1 µg/mL in [3] (48 h, read-out: MIC100); 7 µM in [3] (setting [15]). Also, the IC50 in series [11] (setting [16]) came out at 6 µg/mL (≈ 13.5 µM).
For `CCCCCCCCCCCCN1CCC(N2CCC3CCCCC3C2)CC1` (racemic) [6i, (±)‐2‐(1‐Dodecylpiperidin‐4‐yl)‐decahydroisoquinoline], the MIC in [3] (setting [14]) was found to be 1.6 µg/mL; in series [3] (48 h, read-out: MIC100), 1.6 µg/mL; in series [3] (setting [15]), 4.1 µM. The MIC90 in [4] was 2 to 16 µg/mL (≈ 5.12 to 41 µM); in series [5], over 32 µg/mL; in series [6], 32 µg/mL (≈ 81.9 µM); in [7], over 32 µg/mL; in series [8] it was 32 µg/mL (≈ 81.9 µM); in series [12], 16 µg/mL (≈ 41 µM). This molecule gave an MIC90 in series [9] of 32 µg/mL (≈ 81.9 µM). In addition, the IC50 in [11] (setting [16]) is 23 µg/mL (≈ 58.9 µM). In addition, the “growth inhibition at concentrations (molds)” value (“growth inhibition” below) in series [13] fell in the range of 16 to 32 µg/mL.
In the case of `CCCCN1CCC(N2CCC3CCCCC3C2)CC1` (racemic) [6g, (±)‐2‐(1‐Butylpiperidin‐4‐yl)‐decahydroisoquinoline], the MIC90 in series [2] (C. albicans, RPMI 1640, 2% glucose, 37°C, duplicate, read-out: MIC90) was over 32 µg/mL; in [5] (R. microsporus, RPMI 1640, 2% glucose, read by eye and microscopically, read-out: MIC90) it was over 32 µg/mL; in series [6] (A. fumigatus (R7), RPMI 1640, 2% glucose, read by eye and microscopically, read-out: MIC90), over 32 µg/mL; in [7] (R. arrhizus (oryzae), RPMI 1640, 2% glucose, read by eye and microscopically, read-out: MIC90) it was over 32 µg/mL; in series [8] it was over 32 µg/mL; in [12] (C. glabrata, RPMI 1640, 2% glucose, 37°C, duplicate, read-out: MIC90) it was over 32 µg/mL. Also, the MIC90 in series [9] (A. fumigatus (R16), RPMI 1640, 2% glucose, read by eye and microscopically, read-out: MIC90) was over 32 µg/mL; in series [10] (C. krusei, RPMI 1640, 2% glucose, 37°C, duplicate, read-out: MIC90) it was over 32 µg/mL. The MIC in series [3] (microdilution, 48 h, 25°C, 600 nm, read-out: MIC100) is over 100 µg/mL; in [3] (supplement table, MIC100, 48 h, 25°C, 600 nm, read-out: Biological Activity MIC Yarrowia lipolytica) it was over 100 µg/mL. Besides, the IC50 in series [11] was over 100 µg/mL.
Turning to `CCCCCCCCN1CCC(N2CCc3cc(OC)c(OC)cc3C2)CC1` [6e, 6,7‐Dimethoxy‐2‐(1‐octylpiperidin‐4‐yl)‐1,2,3,4‐tetrahydroisoquinoline], the MIC90 is 32 µg/mL (≈ 82.3 µM) in series [2]; over 32 µg/mL in [5]; over 32 µg/mL in series [6]; over 32 µg/mL in series [7]; over 32 µg/mL in series [8]; over 32 µg/mL in series [12]. Besides, the results for the MIC90 in series [9] and in [10] were over 32 µg/mL and 8 µg/mL (≈ 20.6 µM), respectively. In addition, the MIC came to 1.6 µg/mL in series [3] (setting [14]); 1.6 µg/mL in series [3] (48 h, read-out: MIC100); 4.1 µM in series [3] (setting [15]). Further, the IC50 in series [11] (setting [16]) was over 100 µg/mL.
For `CC(Cc1ccc(C(C)(C)C)cc1)CN1CCCCC1` (stereo not drawn) [fenpropidin], in series [1], the “MIC values against Candida species” value was 0.25 to 1 µg/mL.
On to `CC(C)=CCCC(C)CCN1CCC(N2CCC3CCCCC3C2)CC1` (racemic) [6k, (±)‐2‐[1‐(3,7‐Dimethyloct‐6‐en‐1‐yl)‐piperidin‐4‐yl]‐decahydroisoquinoline], for which the MIC90 was 16 µg/mL (≈ 44.4 µM) in series [2]; over 32 µg/mL in series [5]; over 32 µg/mL in [6]; 16 µg/mL (≈ 44.4 µM) in [7]; over 32 µg/mL in [8]; over 32 µg/mL in [12]. Moreover, the MIC90 in series [9] was over 32 µg/mL; in [10], 8 µg/mL (≈ 22.2 µM). Besides, the MIC in series [3] (setting [14]) was determined as 6.3 µg/mL; in [3] (48 h, read-out: MIC100), 6.3 µg/mL; in series [3] (setting [15]) it was 17.5 µM. In addition, in [11] (setting [16]), the IC50 is 17 µg/mL (≈ 47.1 µM). Besides, the “growth inhibition” value in series [13] was in the range of 16 to 32 µg/mL.
Consider `CC(C)=CCC/C(C)=C/CN1CCC(N2CCC3CCCCC3C2)CC1` (stereo not drawn) [6l, 2‐{1‐[(2E)‐3,7‐Dimethylocta‐2,6‐dien‐1‐yl]piperidin‐4‐yl}‐decahydroisoquinoline], for which the MIC90 in series [2] is 32 µg/mL (≈ 89.2 µM); in [5], over 32 µg/mL; in [6], over 32 µg/mL; in series [7], 16 µg/mL (≈ 44.6 µM); in series [8], over 32 µg/mL; in series [12] it was over 32 µg/mL. The MIC90 is over 32 µg/mL in series [9] and 4 µg/mL (≈ 11.2 µM) in [10]. Moreover, the MIC in series [3] (setting [14]) came out at 12.5 µg/mL; in series [3] (48 h, read-out: MIC100), 12.5 µg/mL; in series [3] (setting [15]) it was 34.9 µM. Besides, the IC50 in series [11] (setting [16]) is 26 µg/mL (≈ 72.5 µM). In addition, in [13], the “growth inhibition” value was 16 to 32 µg/mL.
As to `COc1cc2c(cc1OC)CN(C1CCN(CCC(C)CCC=C(C)C)CC1)CC2` (racemic) [6j, (±)‐2‐[1‐(3,7‐Dimethyloct‐6‐en‐1‐yl)piperidin‐4‐yl]‐6,7‐dimethoxy‐1,2,3,4‐tetrahydroisoquinoline], the MIC90 in series [2], in [5], in [6], in [7], in [8] and in [12] was over 32 µg/mL throughout. The MIC90 is over 32 µg/mL in series [9] and 32 µg/mL (≈ 77.2 µM) in series [10]. Also, the MIC in series [3] (setting [14]) was found to be 3.1 µg/mL; in [3] (48 h, read-out: MIC100) it was 3.1 µg/mL; in series [3] (setting [15]), 7.5 µM. Besides, the IC50 in series [11] (setting [16]) was determined as 75 µg/mL (≈ 181 µM).

A word on the MIC90: it is the lowest concentration that inhibits either 90% of growth or 90% of the strains tested, depending on the study. The IC50 is the concentration needed to halve the response being measured.
